Measured values from the supplement of paper PMC4862054.

Assays:
Experiment in all cases: normalised response (% of control), CellTiter-Glo; higher = more viable cells (100 = DMSO, 0 = benzethonium chloride kill control)
Details in all cases: incubation time: 72 h
[1] = system: BT-474
Outline: (§1)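 Breast cancer cell lines, seeded at 20 µl suspension per well, were incubated for 72 h in 384-well plates containing compound at 5 concentrations. These concentrations rose in 10-fold steps over a 10,000-fold range set for each compound. CellTox Green fluorescence (485/520 nm) was read, then CellTiter-Glo luminescence after 10 min at room temperature, and each plate was normalised to 0.1 % DMSO (100) and a positive kill control (0). Values are normalised signals, each at one concentration.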

[2] = system: BT-549
Outline: as §1

[3] = system: CAL-120
Outline: as §1

[4] = system: CAL-148
Outline: as §1

[5] = system: CAL-51
Outline: as §1

[6] = system: CAL-85-1
Outline: as §1

[7] = system: DU-4475
Outline: as §1

[8] = system: HCC1143
Outline: as §1

[9] = system: HCC1599
Outline: as §1

[10] = system: HCC1937
Outline: as §1

[11] = system: HDQ-P1
Outline: as §1

[12] = system: Hs578T
Outline: as §1

[13] = system: MCF-10A
Outline: as §1

[14] = system: MDA-MB-231
Outline: as §1

[15] = system: MDA-MB-436
Outline: as §1

[16] = system: MDA-MB-453
Outline: as §1

[17] = system: MDA-MB-468
Outline: as §1

[18] = system: MFM-223
Outline: as §1

[19] = system: SK-BR-3
Outline: as §1

Compound | normalised response [1] | normalised response [2] | normalised response [3] | normalised response [4] | normalised response [5] | normalised response [6] | normalised response [7] | normalised response [8] | normalised response [9] | normalised response [10] | normalised response [11] | normalised response [12] | normalised response [13] | normalised response [14] | normalised response [15] | normalised response [16] | normalised response [17] | normalised response [18] | normalised response [19]
N[C@@H](CSC(c1ccccc1)(c1ccccc1)c1ccccc1)C(=O)O [S-trityl-L-cysteine] (40 nM) | 96.7% | 99.2% | 102% | 97.5% | 131% | 104% | 101% | 92.7% | 109% | 93.8% | 119% | 94.3% | 105% | 90.4% | 103% | 95% | 98.5% | 107% | 97.5%
C[C@]12CC[C@@H]3c4ccc(O)cc4C[C@@H](CCCCCCCCC[S+]([O-])CCCC(F)(F)C(F)(F)F)[C@H]3[C@@H]1CC[C@@H]2O (some centres undefined) [Fulvestrant] (0.1 nM) | 101% | 109% | 95.7% | 102% | 123% | 101% | 102% | 95.3% | 93.4% | 105% | 101% | 112% | 107% | 100% | 105% | 112% | 101% | 107% | 108%
CC(=O)Nc1ccc(C(=O)Nc2ccccc2N)cc1 [Tacedinaline] (1 nM) | 105% | 96.2% | 97.9% | 95.3% | 124% | 95.8% | 97.6% | 99.5% | 109% | 92.7% | 98.9% | 96% | 93.5% | 97.6% | 101% | 103% | 98.3% | 101% | 97.1%
NC(=O)Nc1cc(-c2cccc(F)c2)sc1C(=O)N[C@H]1CCCNC1 [AZD7762] (1 nM) | 114% | 95.6% | 99.7% | 102% | 95.7% | 98.5% | 104% | 103% | 95.7% | 98.7% | 91.2% | 101% | 103% | 103% | 106% | 94.1% | 102% | 102% | 105%
CCCCCCCCCCCCCCCCCCOP(=O)([O-])OC1CC[N+](C)(C)CC1 [Perifosine] (0.25 nM) | 99.4% | 107% | 108% | 99.2% | 102% | 96.5% | 92.7% | 103% | 113% | 98.8% | 106% | 108% | 101% | 99.6% | 116% | 105% | 99% | 92.3% | 92.3%
O=C(CCCCCCC(=O)Nc1ccc([C@H]2O[C@@H](CSc3nc(-c4ccccc4)c(-c4ccccc4)o3)C[C@@H](c3ccc(CO)cc3)O2)cc1)NO [Tubacin] (1 nM) | 94.2% | 100% | 96.1% | 97.6% | 119% | 92.4% | 100% | 98.9% | 93.5% | 93.3% | 94.6% | 100% | 92.8% | 97.5% | 82.1% | 103% | 91.5% | 96.8% | 101%
Cc1ccc(C(=O)Nc2ccc(CN3CCN(C)CC3)c(C(F)(F)F)c2)cc1C#Cc1cnc2cccnn12 [Ponatinib] (1 nM) | 104% | 106% | 106% | 99.5% | 101% | 108% | 100% | 97.1% | 103% | 98.4% | 104% | 97.3% | 103% | 97.2% | 108% | 98.2% | 107% | 99.5% | 99.4%
CC1(C)NC(=O)N(c2ccc([N+](=O)[O-])c(C(F)(F)F)c2)C1=O [Nilutamide] (10 nM) | 105% | 105% | 97.9% | 112% | 127% | 96% | 109% | 101% | 113% | 101% | 95.6% | 99.1% | 110% | 102% | 110% | 103% | 93.3% | 112% | 117%
O=C(CCCCCCC(=O)Nc1ccc([C@H]2O[C@@H](CSc3nc(-c4ccccc4)c(-c4ccccc4)o3)C[C@@H](c3ccc(CO)cc3)O2)cc1)NO [Tubacin] (10 nM) | 93.5% | 101% | 95.8% | 100% | 110% | 103% | 101% | 103% | 95.3% | 93.1% | 93% | 104% | 99.1% | 94.4% | 96% | 97.2% | 91.2% | 97.9% | 95.2%
Cc1ccc(C(=O)N(CCCN)[C@@H](c2oc3cc(Cl)ccc3c(=O)c2Cc2ccccc2)C(C)C)cc1 (0.01 nM) | 95.3% | 104% | 96.6% | 91.8% | 81.7% | 93.8% | 96.6% | 102% | 112% | 102% | 103% | 97.8% | 97.8% | 99% | 97.3% | 101% | 93% | 92.1% | 93.1%
CO[C@H]1/C=C\C=C(/C)C(=O)NC2=CC(=O)C(NCCN(C)C)=C(C[C@@H](C)C[C@H](OC)[C@H](O)[C@@H](C)/C=C(\C)[C@@H]1OC(N)=O)C2=O [Alvespimycin] (1 nM) | 120% | 95.6% | 100% | 112% | 112% | 97.8% | 105% | 97.5% | 102% | 91.6% | 102% | 101% | 106% | 102% | 104% | 113% | 107% | 105% | 105%
Cn1c(CCCC(=O)O)nc2cc(N(CCCl)CCCl)ccc21 [Bendamustine] (10 nM) | 111% | 99.3% | 107% | 110% | 100% | 102% | 111% | 107% | 106% | 102% | 101% | 103% | 110% | 103% | 104% | 107% | 106% | 106% | 110%
N#CCNC(=O)c1ccc(-c2ccnc(Nc3ccc(N4CCOCC4)cc3)n2)cc1 [Momelotinib] (1 nM) | 89.8% | 95.1% | 96.9% | 94.2% | 128% | 94.6% | 95.3% | 97.6% | 94.7% | 97.7% | 100% | 97.2% | 90.4% | 97.2% | 97.8% | 91.9% | 98.2% | 92.3% | 95.8%
CC(=O)Nc1ccc(C(=O)Nc2ccccc2N)cc1 [Tacedinaline] (0.1 nM) | 102% | 99.5% | 92.1% | 93.2% | 113% | 104% | 100% | 92.9% | 100% | 98.4% | 94.2% | 96.7% | 98.4% | 98.9% | 101% | 104% | 105% | 97.1% | 105%
NC(=O)Nc1cc(-c2cccc(F)c2)sc1C(=O)N[C@H]1CCCNC1 [AZD7762] (0.1 nM) | 105% | 105% | 105% | 102% | 77% | 98.4% | 108% | 98.4% | 89.9% | 94.3% | 106% | 99.2% | 98.2% | 105% | 97.5% | 99.9% | 100% | 109% | 105%
N#CCNC(=O)c1ccc(-c2ccnc(Nc3ccc(N4CCOCC4)cc3)n2)cc1 [Momelotinib] (10 nM) | 94.2% | 99.6% | 95.1% | 94.9% | 80.9% | 97.1% | 97.2% | 100% | 89.8% | 96.8% | 103% | 104% | 103% | 97.4% | 101% | 89.5% | 92.8% | 94.2% | 115%
Oc1nc(-c2ccc(C(F)(F)F)cc2)nc2c1CSCC2 [XAV-939] (10 nM) | 102% | 98.6% | 93.8% | 101% | 78.4% | 98.7% | 104% | 99.8% | 108% | 101% | 97.8% | 102% | 105% | 95.4% | 99.9% | 106% | 92.9% | 98.9% | 117%
CCCCCCCCCCCCCCCCCCOP(=O)([O-])OC1CC[N+](C)(C)CC1 [Perifosine] (2.5 nM) | 104% | 99.5% | 102% | 95.9% | 81% | 101% | 94.7% | 102% | 61.5% | 101% | 108% | 98.9% | 98.4% | 100% | 95.2% | 101% | 97.4% | 92.8% | 92.8%
N.N.[Cl][Pt][Cl] [Cisplatin] (0.1 nM) | 101% | 106% | 102% | 85.7% | 115% | 97.2% | 92% | 95.2% | 110% | 101% | 101% | 102% | 103% | 99.7% | 98.2% | 98.9% | 97.3% | 96.9% | 98.6%
CC(C)Cn1cnc2c(N)nc3ccccc3c21 [Imiquimod] (0.25 nM) | 102% | 99% | 96.5% | 99.6% | 96.8% | 103% | 104% | 99.2% | 99.2% | 97.1% | 94.2% | 99% | 111% | 101% | 99.6% | 109% | 91.9% | 100% | 110%
CCC1(c2ccc(N)cc2)CCC(=O)NC1=O (centres undefined) [Aminoglutethimide] (10 nM) | 105% | 95.2% | 100% | 100% | 151% | 105% | 104% | 108% | 97% | 99.3% | 97.5% | 97.3% | 103% | 104% | 95.4% | 90.2% | 101% | 101% | 98.7%
